Test results from the NIST ThermoML archive (doi:10.1016/j.jct.2018.05.019).

Settings: 101.33 kPa, Liquid, transient hot wire

CCCCC(=O)OC [methyl pentanoate]
Settings | thermal conductivity [W/m/K]
285.55 K | 0.143
290.39 K | 0.1405
295.51 K | 0.1385
298.99 K | 0.1373
305.5 K | 0.1356
312.35 K | 0.1336
320.42 K | 0.1313
327.35 K | 0.1295
333.5 K | 0.1272
340.41 K | 0.1246
348.36 K | 0.1229
355.39 K | 0.1212
362.16 K | 0.1194

CCCC(=O)OC [methyl butanoate]
Settings | thermal conductivity [W/m/K]
283.34 K | 0.1459
288.3 K | 0.1442
293.39 K | 0.1416
297.41 K | 0.1401
298.44 K | 0.1397
301.3 K | 0.1391
305.42 K | 0.1372
309.31 K | 0.136
313.29 K | 0.1353
318.38 K | 0.1333
323.35 K | 0.1314
328.55 K | 0.1295
333.25 K | 0.128
338.4 K | 0.1261
343.25 K | 0.1249
348.24 K | 0.1233
353.35 K | 0.1215
358.18 K | 0.1207

CCO [ethanol]
Settings | thermal conductivity [W/m/K]
276.51 K | 0.1719
280.8 K | 0.1687
284.27 K | 0.1699
290.37 K | 0.1677
293.43 K | 0.1658

O [water]
Settings | thermal conductivity [W/m/K]
293.09 K | 0.6056
299.55 K | 0.613
309.83 K | 0.6313
314.96 K | 0.6399
319.56 K | 0.6399
324.64 K | 0.6492
332.53 K | 0.6555
339.33 K | 0.657
340.41 K | 0.6654
349.41 K | 0.6723

CCCCCCCC(=O)OC [methyl octanoate]
Settings | thermal conductivity [W/m/K]
273.56 K | 0.145
278.48 K | 0.1446
283.44 K | 0.1428
288.35 K | 0.1423
293.42 K | 0.1405
298.33 K | 0.1395
303.21 K | 0.1387
308.29 K | 0.1374
313.29 K | 0.1361
318.22 K | 0.1348
323.2 K | 0.1335
328.3 K | 0.132
333.41 K | 0.1304
338.32 K | 0.1294
343.27 K | 0.1285
348.12 K | 0.1275
353.23 K | 0.126
358.28 K | 0.1246
363.09 K | 0.1238
368.27 K | 0.1223
373.24 K | 0.1212
378.21 K | 0.1196
383.17 K | 0.1189
388.44 K | 0.1173
393.54 K | 0.116

CCCCCC(=O)OC [methyl hexanoate]
Settings | thermal conductivity [W/m/K]
263.83 K | 0.1482
268.65 K | 0.1472
273.7 K | 0.1448
278.59 K | 0.1439
283.75 K | 0.142
288.67 K | 0.1405
293.64 K | 0.1395
298.72 K | 0.1376
303.63 K | 0.1367
308.61 K | 0.1344
313.6 K | 0.1336
321.08 K | 0.1315
328.54 K | 0.1301
333.52 K | 0.1284
338.55 K | 0.1269
343.49 K | 0.1259
348.48 K | 0.1243
353.7 K | 0.1231
358.38 K | 0.1219
363.41 K | 0.1205
368.5 K | 0.1191

CCCCCCCCC(=O)OC [methyl nonanoate]
Settings | thermal conductivity [W/m/K]
278.44 K | 0.1448
283.5 K | 0.1441
288.5 K | 0.1428
293.36 K | 0.1418
298.3 K | 0.141
303.31 K | 0.1393
308.24 K | 0.1387
313.3 K | 0.1371
318.29 K | 0.1365
323.25 K | 0.1347
328.25 K | 0.1337
333.06 K | 0.1327
338.16 K | 0.1313
343.23 K | 0.1299
348.07 K | 0.1289
353.12 K | 0.1277
358.24 K | 0.1263
363.07 K | 0.1256
368.1 K | 0.1242
373.11 K | 0.1227
378.24 K | 0.1213
383.21 K | 0.1207
